The experiment relates to P388 leukemia. The experiment is described as follows: NCI tumour cell line growth inhibition, 48 h.

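All cell lines were grown in 96-well plates and treated with compound for 48 hours. Definition used: TGI = concentration required for complete inhibition of growth.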

For `COc1ccc2c(c1[N+](=O)[O-])CC[C@@H]1[C@@H]2CC[C@]2(C)C(=O)CC[C@@H]12`, the TGI was above 25 µM.
In turn, `CN(C)CCN1C(=O)c2cccc3cc(N)cc(c23)C1=O` registered a TGI of 12.1 µM.

The record behind these values is PubChem BioAssay (NCI).
